Test system: Plasmodium falciparum
Test: OSM: Erythrocyte assay. NF54 with 3H-Hypoxanthine at 72hr time point.
Type: functional, organism-based

EC50	SMILES
40 nM	CO[C@@H](COc1cncc2nnc(-c3ccc(C#N)cc3)n12)c1ccc(F)c(F)c1
3560 nM	O=C(c1cncc2nnc(-c3ccc(OC(F)F)cc3)n12)N1CCCC1c1ccccc1 (configuration not stated)
547 nM	O=C(NC1CCc2cc(Cl)ccc21)c1cncc2nnc(-c3ccc(OC(F)F)cc3)n12 (configuration not stated)
10000 nM	O=C(c1cncc2nnc(-c3ccc(OC(F)F)cc3)n12)N1CCN(c2ccccn2)CC1
10000 nM	Cc1nn(-c2ccc(F)cc2)c(C)c1-c1nnc2cncc(Oc3ccc(Cl)c(Cl)c3)n12
10000 nM	O=C(c1cncc2nnc(-c3ccc(OC(F)F)cc3)n12)N1CCOCC1
8760 nM	FC(F)Oc1ccc(-c2nnc3n2C(CCCc2ccccc2)CNC3)cc1 (configuration not stated)
10000 nM	O=C1[C@@H](Oc2cn3c(-c4ccc(OC(F)F)cc4)nnc3cn2)[C@@H](c2ccc(F)c(F)c2)N1C1CC1
455 nM	FC(F)Oc1ccc(-c2nnc3cncc(Oc4ccc(Cl)c(Cl)c4)n23)cc1
10000 nM	O=S(=O)(Cc1ccc(C(F)(F)F)cc1)Nc1cncc2nnc(-c3ccc(OC(F)F)cc3)n12
510 nM	Fc1ccc(CCNc2ccc3nnc(-c4ccc(OC(F)F)cc4)n3n2)cc1
10000 nM	Fc1ccc(CNc2cn3c(-c4ccc(OC(F)F)cc4)nnc3cn2)cc1F
850 nM	Fc1ccc(CCOc2cncc3nnc(Nc4ccc(F)c(F)c4)n23)cc1F
124 nM	OC(COc1cncc2nnc(-c3ccc(OC(F)F)cc3)n12)c1ccc(F)c(F)c1 (configuration not stated)
262 nM	Fc1ccc(CCOc2cncc3nnc(-c4ccc(C(F)(F)F)nc4)n23)cc1F
10000 nM	FC(F)Oc1ccc(-c2nnc3cncc(OCC(F)(F)F)n23)cc1
10000 nM	N#Cc1ccc(-c2nnc3ccc(NCCc4cccnc4)nn23)cc1
10000 nM	Fc1ccc(CCOc2cncc3nnc(C4CCOCC4)n23)cc1F
110 nM	FC(F)Oc1ccc(-c2nnc3cncc(CN4Cc5ccccc5C4)n23)cc1
650 nM	O=C(Nc1ccc(F)c(F)c1)c1cncc2nnc(-c3ccc(OC(F)F)cc3)n12
10000 nM	FC(F)Oc1ccc(-c2nnc3cncc(CCN4CCOCC4)n23)cc1
10000 nM	Fc1ccc(C2(C(Oc3cncc4nnc(-c5ccc(OC(F)F)cc5)n34)C(F)(F)F)CC2)cc1F (configuration not stated)
483 nM	Fc1ccc(C2(COc3cncc4nnc(-c5ccc(OC(F)F)cc5)n34)COC2)cc1F
10000 nM	Cn1ncc2ccc(Oc3cncc4nnc(-c5ccc(OC(F)F)cc5)n34)cc21
4010 nM	[O-][n+]1cc(OCCc2ccc(F)c(F)c2)n2c(-c3ccc(OC(F)F)cc3)nnc2c1
320 nM	Fc1ccc(CCCc2cncc3nnc(-c4ccc(OC(F)F)cc4)n23)cc1F

EC50	SMILES
1670 nM	COc1ccc2ccc(Oc3cncc4nnc(-c5ccc(OC(F)F)cc5)n34)cc2n1
191 nM	O=C(Nc1ccc(F)c(Cl)c1)c1cncc2nnc(-c3ccc(OC(F)F)cc3)n12
65.4 nM	Fc1ccc(C(F)COc2cncc3nnc(-c4ccc(OC(F)F)cc4)n23)cc1F (configuration not stated)
830 nM	Fc1ccc(CCOc2cncc3cnc(-c4ccc(Cl)cc4)n23)cc1F
6780 nM	Fc1ccc(CCOc2ccc3nnc(-c4ccc(OC(F)F)cc4)n3n2)cc1F
1630 nM	FC(F)Oc1ccc(-c2nnc3cncc(Oc4ccc5ccc(C(F)(F)F)nc5c4)n23)cc1
10000 nM	Cc1nn(-c2ccc(F)cc2)c(C)c1-c1nnc2cncc(OCC(F)(F)F)n12
10000 nM	OCCc1cncc2nnc(-c3ccc(OC(F)F)cc3)n12
1340 nM	O=C(NCc1ccc(Cl)cc1)c1cncc2nnc(-c3ccc(OC(F)F)cc3)n12
8370 nM	OCCC1CNCc2nnc(-c3ccc(OC(F)F)cc3)n21 (configuration not stated)
430 nM	Fc1ccc(N2CC(Oc3cncc4nnc(-c5ccc(OC(F)F)cc5)n34)C2)cc1F
10000 nM	Cc1nn(-c2ccc(F)cc2)c(C)c1-c1nnc2cncc(C(=O)Nc3ccnc(C(F)(F)F)c3)n12
173 nM	Fc1cc(F)c2ccc(Oc3cncc4nnc(-c5ccc(OC(F)F)cc5)n34)cc2c1
10000 nM	O=C(Nc1ccccn1)c1cncc2nnc(-c3ccc(OC(F)F)cc3)n12
123 nM	CC(F)(COc1cncc2nnc(-c3ccc(OC(F)F)cc3)n12)c1ccc(F)c(F)c1 (configuration not stated)
180 nM	O=C(Nc1cccc(Cl)c1)c1cncc2nnc(-c3ccc(OC(F)F)cc3)n12
10000 nM	Nc1ncc(OCCc2ccc(F)c(F)c2)n2c(-c3ccc(OC(F)F)cc3)nnc12
521 nM	Fc1ccc(COc2cn3c(-c4ccc(OC(F)F)cc4)nnc3cn2)cc1F
2960 nM	FC(F)Oc1ccc(-c2nnc3cncc(Oc4ccc(Cl)cc4)n23)cc1
250 nM	O=C(NCc1cccc(Cl)c1)c1cncc2nnc(-c3ccc(OC(F)F)cc3)n12
10000 nM	CN[C@@H](COc1cncc2nnc(-c3ccc(OC(F)F)cc3)n12)c1ccc(F)c(F)c1
2000 nM	FC(F)Oc1ccc(-c2nnc3cncc(N4CCC(c5ccccc5)C4)n23)cc1 (configuration not stated)
6040 nM	FC(F)Oc1ccc(-c2nnc3cncc(Oc4cccc(Oc5ccccn5)c4)n23)cc1
470 nM	Fc1ccc(CCOc2cncc3nnc(N4Cc5ccccc5C4)n23)cc1F
3450 nM	Fc1ccc(Oc2cn3c(-c4ccc(OC(F)F)cc4)nnc3cn2)cc1F
10000 nM	O=C(c1cncc2nnc(-c3ccc(OC(F)F)cc3)n12)N1Cc2ccccc2C1

EC50	SMILES
839 nM	Fc1cc2ccc(Oc3cncc4nnc(-c5ccc(OC(F)F)cc5)n34)cc2cc1F
110 nM	Fc1ccc(CCOc2cncc3ncc(-c4ccc(Cl)cc4)n23)cc1F
33.8 nM	Fc1ccc(CCOc2cn3c(-c4ccc(OC(F)F)cc4)nnc3cn2)cc1F
3740 nM	O=C(Nc1ccc(F)cc1)c1cncc2nnc(-c3ccc(OC(F)F)cc3)n12
576 nM	FC(F)Oc1ccc(-c2nnc3cncc(Oc4ccc5ccsc5c4)n23)cc1
738 nM	CC(C)(C)c1ccc(Oc2cncc3nnc(-c4ccc(OC(F)F)cc4)n23)cc1
2020 nM	FC(F)Oc1ccc(-c2nnc3cncc(Oc4ccc5nc(C(F)(F)F)ncc5c4)n23)cc1
24.3 nM	OCC(COc1cncc2nnc(-c3ccc(OC(F)F)cc3)n12)c1ccc(F)c(F)c1 (configuration not stated)
731 nM	Fc1ccc([C@@H]2[C@@H](Oc3cncc4nnc(-c5ccc(OC(F)F)cc5)n34)CN2C2CC2)cc1F
10000 nM	CS(=O)(=O)N1CCN(C(=O)c2cncc3nnc(-c4ccc(OC(F)F)cc4)n23)CC1
280 nM	O=C(NCc1ccc(F)c(F)c1)c1cncc2nnc(-c3ccc(OC(F)F)cc3)n12
6920 nM	Cc1ncc(OCCc2ccc(F)c(F)c2)n2c(-c3ccc(OC(F)F)cc3)nnc12
2630 nM	Fc1ccc(CCOc2cncc3nnc(N4CCCCC4)n23)cc1F
360 nM	Fc1ccc(COCc2cncc3nnc(-c4ccc(OC(F)F)cc4)n23)cc1F
140 nM	O=C(Nc1ccnc(C(F)(F)F)c1)c1cncc2nnc(-c3ccc(OC(F)F)cc3)n12
10000 nM	FC(F)Oc1ccc(-c2nnc3cncc(CCN4Cc5ccccc5C4)n23)cc1
6720 nM	Fc1ccc(-c2cnn(-c3cncc4nnc(-c5ccc(OC(F)F)cc5)n34)c2)cc1F
3170 nM	O=C(NCCc1ccccc1)c1cncc2nnc(-c3ccc(OC(F)F)cc3)n12
16.7 nM	N#Cc1ccc(-c2nnc3cncc(OCC(OC(F)F)c4ccc(F)c(F)c4)n23)cc1 (configuration not stated)
10000 nM	FC(F)Oc1ccc(-c2nnc3n2CCNC3)cc1
101 nM	CC(O)(COc1cncc2nnc(-c3ccc(OC(F)F)cc3)n12)c1ccc(F)c(F)c1 (configuration not stated)
1060 nM	CN(Cc1cccc(Cl)c1)C(=O)c1cncc2nnc(-c3ccc(OC(F)F)cc3)n12
160 nM	Fc1ccc(CCOc2cnc(Cl)c3nnc(-c4ccc(OC(F)F)cc4)n23)cc1F
309 nM	O=C(NCc1cccc(C(F)(F)F)c1Cl)c1cncc2nnc(-c3ccc(OC(F)F)cc3)n12
5000 nM	O=C(Nc1ccc(Cl)cc1)c1cncc2nnc(-c3ccc(OC(F)F)cc3)n12
380 nM	O=C(NCc1ccccc1Cl)c1cncc2nnc(-c3ccc(OC(F)F)cc3)n12

EC50	SMILES
10000 nM	O=C(NCC1CCOCC1)c1cncc2nnc(-c3ccc(OC(F)F)cc3)n12
10000 nM	O=C(c1cncc2nnc(-c3ccc(OC(F)F)cc3)n12)N1CCCC1
278 nM	N[C@@H](COc1cncc2nnc(-c3ccc(OC(F)F)cc3)n12)c1ccc(F)c(F)c1
610 nM	Fc1ccc([C@H]2[C@@H](Oc3cncc4nnc(-c5ccc(OC(F)F)cc5)n34)CN2C2CC2)cc1F
1360 nM	C[C@@H](NC(=O)c1cncc2nnc(-c3ccc(OC(F)F)cc3)n12)c1ccccc1
1600 nM	C[C@H](NC(=O)c1cncc2nnc(-c3ccc(OC(F)F)cc3)n12)c1ccccc1
10000 nM	CC(=O)N1CCC(c2nnc3cncc(OCCc4ccc(F)c(F)c4)n23)CC1
1670 nM	FC(F)Oc1ccc(-c2nnc3cncc(OCc4cccc5ccccc45)n23)cc1
570 nM	OC[C@H](Nc1cncc2nnc(-c3ccc(OC(F)F)cc3)n12)c1ccc(F)c(F)c1
10000 nM	NCC(=O)N1CCn2c(nnc2-c2ccc(OC(F)F)cc2)C1
6860 nM	CCN(CC)c1ncc(OCCc2ccc(F)c(F)c2)n2c(-c3ccc(OC(F)F)cc3)nnc12
10000 nM	Fc1ccc(CCNc2cn3c(-c4ccc(OC(F)F)cc4)nnc3cn2)cc1
4960 nM	Fc1ccc(OC2CN(c3cncc4nnc(-c5ccc(OC(F)F)cc5)n34)C2)cc1F
44.1 nM	CN(C)[C@@H](COc1cncc2nnc(-c3ccc(OC(F)F)cc3)n12)c1ccc(F)c(F)c1
1930 nM	Cc1noc2cc(Oc3cncc4nnc(-c5ccc(OC(F)F)cc5)n34)ccc12
6200 nM	Cn1cc2ccc(Oc3cncc4nnc(-c5ccc(OC(F)F)cc5)n34)cc2n1
280 nM	FC(F)Oc1ccc(-c2nnc3cncc(CCCc4ccccc4)n23)cc1
4130 nM	O=c1[nH]cc(OCCc2ccc(F)c(F)c2)n2c(-c3ccc(OC(F)F)cc3)nnc12
597 nM	FC(F)Oc1ccc(-c2nnc3cncc(Oc4ccc(Cl)c(C(F)(F)F)c4)n23)cc1
115 nM	FC(F)Oc1ccc(-c2nnc3cncc(Oc4ccc5ccccc5c4)n23)cc1
10000 nM	O=C(c1cncc2nnc(-c3ccc(OC(F)F)cc3)n12)N1CCc2cc(F)ccc21
10000 nM	FC(F)Oc1ccc(-c2nnc3cncc(N4CC(c5ccccc5)C4)n23)cc1
1980 nM	Cn1ccc2cc(Oc3cncc4nnc(-c5ccc(OC(F)F)cc5)n34)ccc21
10000 nM	O=C(NCc1cncc2nnc(-c3ccc(OC(F)F)cc3)n12)c1cccc(Cl)c1

— ChEMBL document CHEMBL3137547, “Open Source Malaria Deposition 2. http://malaria.ourexperiment.org”
